Each block holds one molecule with its values, some of them ahead of it.
How the values were obtained:
[1] = molecular target: T1, 5-hydroxytryptamine receptor 2B (Homo sapiens, UniProt P41595); assay: Displacement of [3H]Mesulergine from human 5-HT2B receptor expressed in HEK293 cells by liquid scintillation counting analysis; assay type: cell-based
[2] = molecular target: T2, 5-hydroxytryptamine receptor 7 (Homo sapiens, UniProt P34969); assay: Displacement of [3H]5-HT from human 5-HT7 receptor expressed in CHO cells by liquid scintillation counting analysis; assay type: cell-based
T2 sequence (P34969 whole entry): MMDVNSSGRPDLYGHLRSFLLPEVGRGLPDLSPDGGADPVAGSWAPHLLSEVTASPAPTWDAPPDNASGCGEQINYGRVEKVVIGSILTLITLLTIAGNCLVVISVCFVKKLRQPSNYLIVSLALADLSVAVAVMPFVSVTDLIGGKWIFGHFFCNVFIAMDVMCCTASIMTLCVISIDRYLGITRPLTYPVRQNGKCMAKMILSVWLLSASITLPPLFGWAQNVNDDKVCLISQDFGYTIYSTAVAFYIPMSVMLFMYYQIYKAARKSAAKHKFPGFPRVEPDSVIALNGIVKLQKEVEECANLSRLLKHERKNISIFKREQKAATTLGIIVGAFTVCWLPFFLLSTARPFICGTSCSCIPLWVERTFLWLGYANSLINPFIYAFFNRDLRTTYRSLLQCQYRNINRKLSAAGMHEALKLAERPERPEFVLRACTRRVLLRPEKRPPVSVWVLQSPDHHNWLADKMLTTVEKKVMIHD

[3] = system: Cavia porcellus; assay: Suppression of 5-HT induced dural FITC-labeled BSA extravasation in Hartley guinea pig at 3 mg/kg, ip pretreated for 30 mins followed by FITC-labeled BSA administration measured after 16 hrs by fluorescence assay relative to control; assay type: functional; settings: route intraperitoneal
[4] = Aqueous solubility of the compound in second liquid of Japanese pharmacopoeia at pH 6.8 after 20 hrs by liquid chromatographic analysis; assay type: physicochemical
[5] = molecular target: T1, 5-hydroxytryptamine receptor 2B; assay: Antagonist activity at human 5-HT2B receptor expressed in HEK293 cells coexpressing EBNA assessed as inhibition of 5-HT-induced IP metabolism incubated for 20 mins prior to substrate addition measured after 20 mins by liquid scintillation counting analysis; assay type: cell-based
[6] = molecular target: D(2) dopamine receptor (Homo sapiens, UniProt P14416); assay: Binding affinity to dopamine D2 receptor (unknown origin)
Chain of D(2) dopamine receptor (P14416 whole entry): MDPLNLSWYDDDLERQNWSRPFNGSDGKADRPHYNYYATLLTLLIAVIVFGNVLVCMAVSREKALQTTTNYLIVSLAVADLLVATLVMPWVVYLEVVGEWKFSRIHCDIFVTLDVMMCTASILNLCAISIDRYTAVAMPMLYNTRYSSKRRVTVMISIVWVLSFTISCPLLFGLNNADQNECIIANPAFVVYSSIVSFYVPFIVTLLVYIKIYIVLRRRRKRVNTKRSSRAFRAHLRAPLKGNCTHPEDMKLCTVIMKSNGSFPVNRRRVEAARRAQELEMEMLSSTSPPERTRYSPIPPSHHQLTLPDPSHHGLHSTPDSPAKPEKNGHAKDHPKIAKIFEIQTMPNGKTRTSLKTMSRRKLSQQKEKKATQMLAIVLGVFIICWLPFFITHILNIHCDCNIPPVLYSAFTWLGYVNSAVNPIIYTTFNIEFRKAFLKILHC

[7] = molecular target: T3, Adrenergic receptor alpha-1 (Homo sapiens, UniProt P35348+P25100+P35368); assay: Binding affinity to adrenergic alpha1 receptor (unknown origin)
T3 sequence (P35348 whole entry): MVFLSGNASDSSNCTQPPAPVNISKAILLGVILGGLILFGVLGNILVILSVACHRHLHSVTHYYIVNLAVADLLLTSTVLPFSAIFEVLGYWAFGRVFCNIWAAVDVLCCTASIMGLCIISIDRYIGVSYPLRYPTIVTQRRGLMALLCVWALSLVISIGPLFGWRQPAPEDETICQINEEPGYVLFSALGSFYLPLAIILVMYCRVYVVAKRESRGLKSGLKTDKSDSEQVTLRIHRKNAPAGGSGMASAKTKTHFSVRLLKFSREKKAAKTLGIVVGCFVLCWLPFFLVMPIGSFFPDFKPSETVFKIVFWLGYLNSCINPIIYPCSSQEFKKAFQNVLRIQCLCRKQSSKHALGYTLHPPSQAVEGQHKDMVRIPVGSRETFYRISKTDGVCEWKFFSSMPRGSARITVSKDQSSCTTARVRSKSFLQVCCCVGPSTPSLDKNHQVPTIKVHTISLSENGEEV
T3 sequence (P25100 whole entry): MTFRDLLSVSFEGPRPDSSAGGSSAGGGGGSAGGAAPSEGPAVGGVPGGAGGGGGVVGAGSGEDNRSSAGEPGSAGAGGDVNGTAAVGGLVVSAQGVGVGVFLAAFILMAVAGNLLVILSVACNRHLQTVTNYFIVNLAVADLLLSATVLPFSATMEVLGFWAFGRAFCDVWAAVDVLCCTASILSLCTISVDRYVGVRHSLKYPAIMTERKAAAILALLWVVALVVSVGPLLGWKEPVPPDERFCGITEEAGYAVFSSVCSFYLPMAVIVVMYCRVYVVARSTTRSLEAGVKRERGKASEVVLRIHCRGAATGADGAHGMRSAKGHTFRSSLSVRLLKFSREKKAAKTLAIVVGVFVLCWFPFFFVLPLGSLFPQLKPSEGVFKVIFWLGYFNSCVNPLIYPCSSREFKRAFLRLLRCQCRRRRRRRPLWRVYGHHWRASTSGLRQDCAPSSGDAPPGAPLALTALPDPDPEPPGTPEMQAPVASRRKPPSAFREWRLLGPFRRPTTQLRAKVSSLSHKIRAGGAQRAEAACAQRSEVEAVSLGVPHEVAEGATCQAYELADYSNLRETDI
T3 sequence (P35368 whole entry): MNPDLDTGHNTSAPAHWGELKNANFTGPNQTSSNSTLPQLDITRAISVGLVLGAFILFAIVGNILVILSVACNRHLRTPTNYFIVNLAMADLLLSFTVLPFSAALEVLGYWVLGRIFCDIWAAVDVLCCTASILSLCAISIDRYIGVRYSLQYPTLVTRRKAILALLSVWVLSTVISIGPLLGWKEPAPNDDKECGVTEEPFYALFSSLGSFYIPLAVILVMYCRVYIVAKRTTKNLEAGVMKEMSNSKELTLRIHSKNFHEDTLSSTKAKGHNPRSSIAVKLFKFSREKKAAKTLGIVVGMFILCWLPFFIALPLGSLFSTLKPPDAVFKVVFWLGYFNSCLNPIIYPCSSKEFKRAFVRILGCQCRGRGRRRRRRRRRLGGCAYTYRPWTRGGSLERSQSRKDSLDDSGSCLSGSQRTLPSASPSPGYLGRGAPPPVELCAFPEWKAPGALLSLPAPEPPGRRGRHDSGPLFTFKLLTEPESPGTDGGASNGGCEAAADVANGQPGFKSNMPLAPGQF

[8] = molecular target: 5-hydroxytryptamine receptor 2A (Homo sapiens, UniProt P28223); assay: Binding affinity to 5-HT2A receptor (unknown origin)
Chain of 5-hydroxytryptamine receptor 2A (P28223 whole entry): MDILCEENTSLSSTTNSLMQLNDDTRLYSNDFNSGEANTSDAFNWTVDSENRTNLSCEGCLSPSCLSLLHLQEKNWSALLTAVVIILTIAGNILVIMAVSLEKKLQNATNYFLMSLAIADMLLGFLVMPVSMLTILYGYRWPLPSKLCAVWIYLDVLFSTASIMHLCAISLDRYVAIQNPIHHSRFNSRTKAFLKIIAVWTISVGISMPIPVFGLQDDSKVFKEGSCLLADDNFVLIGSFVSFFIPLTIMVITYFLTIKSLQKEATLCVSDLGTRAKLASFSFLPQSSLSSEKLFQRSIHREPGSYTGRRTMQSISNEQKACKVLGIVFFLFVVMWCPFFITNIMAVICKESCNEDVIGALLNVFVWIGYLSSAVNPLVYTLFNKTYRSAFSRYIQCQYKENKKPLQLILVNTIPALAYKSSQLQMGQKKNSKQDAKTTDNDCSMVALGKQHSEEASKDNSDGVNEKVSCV

[9] = system: Cavia porcellus; assay: Suppression of 5-HT induced dural FITC-labeled BSA extravasation in ip dosed Hartley guinea pig pretreated for 30 mins followed by FITC-labeled BSA administration measured after 16 hrs by fluorescence assay; assay type: functional, organism-based
[10] = molecular target: T2, 5-hydroxytryptamine receptor 7; assay: Antagonist activity at human 5-HT7 receptor expressed in CHO cells assessed as inhibition of agonist-induced cAMP production at 10 uM incubated for 20 mins prior to substrate addition measured after 10 mins by EIA relative to control; assay type: functional, cell-based
[11] = molecular target: T4, Muscarinic acetylcholine receptor M1 (Homo sapiens, UniProt P11229); assay: Binding affinity to muscarinic M1 receptor (unknown origin)
T4 sequence (P11229 whole entry): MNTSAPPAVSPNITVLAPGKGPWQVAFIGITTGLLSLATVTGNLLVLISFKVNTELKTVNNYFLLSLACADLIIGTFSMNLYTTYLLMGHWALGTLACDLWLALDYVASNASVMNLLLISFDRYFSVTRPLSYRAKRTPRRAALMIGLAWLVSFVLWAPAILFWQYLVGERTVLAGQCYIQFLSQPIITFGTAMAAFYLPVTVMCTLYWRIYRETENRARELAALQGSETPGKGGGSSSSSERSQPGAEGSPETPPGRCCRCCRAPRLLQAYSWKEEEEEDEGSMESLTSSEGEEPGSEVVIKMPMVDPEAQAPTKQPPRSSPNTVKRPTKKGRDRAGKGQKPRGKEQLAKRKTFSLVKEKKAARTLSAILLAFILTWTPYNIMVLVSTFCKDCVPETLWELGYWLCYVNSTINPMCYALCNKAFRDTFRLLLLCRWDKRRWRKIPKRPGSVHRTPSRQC

[12] = molecular target: T5, 5-hydroxytryptamine receptor 2C (Homo sapiens, UniProt P28335); assay: Binding affinity to 5-HT2C receptor (unknown origin)
T5 sequence (P28335 whole entry): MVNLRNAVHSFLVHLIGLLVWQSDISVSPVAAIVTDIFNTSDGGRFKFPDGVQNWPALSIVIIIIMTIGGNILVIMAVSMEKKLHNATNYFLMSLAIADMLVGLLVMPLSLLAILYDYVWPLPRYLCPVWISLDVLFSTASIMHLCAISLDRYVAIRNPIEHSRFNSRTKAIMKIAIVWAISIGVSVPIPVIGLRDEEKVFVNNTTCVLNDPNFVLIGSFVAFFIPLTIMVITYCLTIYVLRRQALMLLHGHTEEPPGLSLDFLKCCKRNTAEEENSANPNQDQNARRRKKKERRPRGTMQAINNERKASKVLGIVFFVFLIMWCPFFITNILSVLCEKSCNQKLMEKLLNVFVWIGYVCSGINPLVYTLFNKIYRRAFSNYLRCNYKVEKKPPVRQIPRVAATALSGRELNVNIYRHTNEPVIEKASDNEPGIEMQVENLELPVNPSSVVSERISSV

[13] = system: Cavia porcellus; assay: Suppression of 5-HT induced dural FITC-labeled BSA extravasation in po dosed Hartley guinea pig pretreated for 30 mins followed by FITC-labeled BSA administration measured after 16 hrs by fluorescence assay; assay type: functional, organism-based

T1 sequence (P41595 whole entry): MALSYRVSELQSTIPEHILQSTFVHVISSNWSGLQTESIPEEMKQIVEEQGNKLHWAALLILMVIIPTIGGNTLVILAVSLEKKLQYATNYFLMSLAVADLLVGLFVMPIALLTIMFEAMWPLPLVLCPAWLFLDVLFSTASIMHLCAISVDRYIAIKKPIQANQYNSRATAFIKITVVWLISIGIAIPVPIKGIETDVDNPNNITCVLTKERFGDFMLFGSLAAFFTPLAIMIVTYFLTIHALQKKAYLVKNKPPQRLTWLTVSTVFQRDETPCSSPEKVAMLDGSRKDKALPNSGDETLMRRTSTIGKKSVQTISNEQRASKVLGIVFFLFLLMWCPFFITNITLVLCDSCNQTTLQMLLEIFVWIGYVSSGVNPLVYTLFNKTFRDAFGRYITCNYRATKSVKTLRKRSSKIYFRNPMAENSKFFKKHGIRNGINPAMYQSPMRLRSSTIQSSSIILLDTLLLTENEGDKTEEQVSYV

- Ki [1]: 10 nM
- Ki [2]: 42 nM
Compound: NC(N)=NC(=O)c1ccc2c(c1)[nH]c1ccccc12

- Ki [1]: 27.4 nM
- Ki [2]: > 1000 nM
Compound: NC(N)=NC(=O)c1cccc2c1-c1ccccc1C2

- solubility at 20 h [4]: < 10 µg/mL
- IC50 [5]: 19.6 nM
- Ki [6]: > 1000 nM
- Ki [7]: > 1000 nM
- Ki [8]: > 1000 nM
- Imax [10]: 97%
- Ki [11]: > 1000 nM
- Ki [12]: > 1000 nM
Compound: Cl.NC(N)=NC(=O)c1ccc2c(c1)C(O)c1ccccc1-2 (configuration not stated)
- Activity [9]: Dose-dependent effect
- Activity [3]: 93%
- Activity [13]: Dose-dependent effect

- Ki [1]: 2.4 nM
- Ki [2]: > 1000 nM
Compound: NC(N)=NC(=O)c1ccc2c(c1)Oc1ccccc1N2

- Ki [1]: 1.8 nM
- solubility at 20 h [4]: < 1 µg/mL
- IC50 [5]: 36.4 nM
- Ki [6]: 1400 nM
- Ki [7]: 790 nM
- Ki [8]: 1000 nM
- Ki [2]: 12.4 nM
- Imax [10]: 98%
- Ki [11]: > 1000 nM
- Ki [12]: 200 nM
Compound: NC(N)=NC(=O)c1ccc2c(c1)Cc1ccccc1-2

- Ki [1]: 0.4 nM
- Ki [2]: 185 nM
Compound: NC(N)=NC(=O)c1ccc2c(c1)C(=O)c1ccccc1-2

The remaining lines, values behind:

Compound: NC(N)=NC(=O)c1ccc2c(c1)Nc1ccccc1O2
- Ki [1]: 3.6 nM
- Ki [2]: 144 nM

Compound: CC(C)c1cc(-c2ccc(F)c3ccccc23)nc(N)n1
- Activity [3]: 60%

Compound: NC(N)=NC(=O)/C=C/c1ccc2c(c1)C(O)c1ccccc1-2 (configuration not stated)
- Ki [1]: 52 nM
- Ki [2]: > 100 nM

Compound: NC(N)=NC(=O)c1ccc2c(c1)-c1ccccc1C2O (configuration not stated)
- Ki [1]: 86.8 nM
- Ki [2]: > 1000 nM

Compound: NC(N)=NC(=O)c1cccc2c1Cc1ccccc1-2
- Ki [1]: 1.1 nM
- Ki [2]: 239 nM

Compound: NC(N)=NC(=O)c1ccc2c(c1)oc1ccccc12
- Ki [1]: 2.1 nM
- Ki [2]: > 100 nM

Compound: CN1CCC(=C2c3ccccc3CCc3sccc32)CC1 [PIZOTYLINE]
- Ki [1]: 2 nM
- Ki [6]: 2.4 nM
- Ki [7]: 75 nM
- Ki [8]: 7.5 nM
- Ki [2]: 25 nM
- Ki [11]: 2 nM
- Ki [12]: 1.4 nM

Reference: ChEMBL document CHEMBL3091369, “Synthesis and structure-activity relationships of new carbonyl guanidine derivatives as novel dual 5-HT2B and 5-HT7 receptor antagonists” (Bioorg Med Chem, 2013)
